Tests used:
[1] = test system: chronic phase CML patient-derived mononuclear cells (CP-CML cells); assay: Apoptosis by annexin V/PI staining in CP-CML cells; format: cell-based, Human; conditions: 5 μM, 48 h
Description: FD; freshly diagnosed, Resp; imatinib-responder, Res; imatinib-resistant.
Peripheral blood samples were obtained from chronic phase (CP-CML), accelerated phase (AP) or blast crisis (BC) CML patients (BCR− ABL+ v e freshly diagnosed, Imatinib-resistant or responders), and healthy donors from King George's Medical University (Clinical Hematology and Medical Oncology division), Lucknow, following ethical approval (Approval No: 1638/R. Cell-12) as per institutional ethical guidelines after written consent. Peripheral blood mononuclear cells (PBMC) were isolated on Percoll (Sigma) density gradient by centrifugation. Briefly, the blood was collected in vials coated with trisodium citrate buffer. Cells were then centrifuged 700 g for 10 min and plasma was removed. The pellet was resuspended in 6 ml Hank's balanced salt solution (HBSS; Invitrogen, Thermo Fisher Scientific), and then 2 ml of 6% Dextran in HBSS was added to it. Cells were then incubated at 37° C. for 30 min. The supernatant was then collected and centrifuged at 300 g for 5 min. The pellet was then resuspended in 2 ml HBSS supplemented with 0.18% glucose and loaded onto percoll gradient. PBMCs were then isolated by centrifugation.

[2] = test system: CD34+ cells from healthy donors
Method: Determination of CFZ's Effect on Cell Viability and Apoptosis • a. CellTitre-Glo assay: Cell viability (in FIG. 1B, FIG. 4 and FIG. 6A) assays was performed using the ATP-based CellTiter-Glo Luminescent cell viability assay (Promega Madison, Wis.) as per the manufacturer's instruction. Briefly, (1.25×10^5) K562 cells/ml (FIG. 1B and FIG. 4) or CD34+ cells from healthy donors (FIG. 6A) were cultured in 48-well plates and were treated as indicated in the respective figures and figure descriptions (vehicle; V=0.1% DMSO). Cells were then incubated with CellTitre-Glo reagent for 15 min. Luminescence was recorded in a GloMax-96 Microplate luminometer (Promega, Madison, Wis.) with an integration time of 1 s per well. • b. Analysis of apoptosis by Annexin V staining and flow cytometry • K562 (FIG. 1C-D) and primary CP-CML cells (FIG. 1H-I) were cultured in 6 well plates (2×10^5 cells/well) and were treated with indicated concentrations of compounds as described in respective figures and their descriptions. Cells were then harvested and washed, and incubated in binding buffer (Annexin V Binding Buffer, BD Pharmingen) with 0.3% Annexin V-FITC and PI for 15 min at room temperature in dark. Apoptosis was measured by FACSCalibur flow cytometer (Becton Dickenson, San Jose, Calif.). • c. TUNEL assay • Pro-apoptotic potential was analysed using a Fluorometric APO-BrdU™ TUNEL Assay Kit (Invitrogen) according to the manufacturer's protocol (FIG. 1F). Cells were treated with Vehicle (0.1% DMSO) or CFZ (5 μM) for 48 h. Cells were then fixed in formaldehyde (4%) for 25 min at 4° C., permeabilized with 0.2% Triton-X100 and washed with PBS. Cells were then incubated in Terminal Deoxynucleotidyl Transferase (TdT) reaction buffer without TdT enzyme for 7 minutes at room temperature and then in TdT buffer with TdT enzyme at 37° C. in dark. After termination of TdT reaction, cells were stained with 5 μg/ml of PI for 15 min in dark followed by washing and analysed with fluorescence microscopy.

[3] = test system: K562 cells; assay: Apoptosis by annexin V/PI staining and flow cytometry in K562 cells; format: cell-based, Human; conditions: 48 h
Method: K562 cells were treated with CFZ for 48 h and apoptosis was analyzed by annexin V and propidium iodide (PI) staining followed by flow-cytometry (FACSCalibur, BD biosciences). (C) Mean±SEM of three independent experiments are plotted. (D) Representative dot plot.

[4] = test system: stat5b, HIF-1α, HIF-2α and CITED2 transcripts in CD34+ cells from imatinib-resistant patients; assay: QRT-PCR of stem cell factors in CD34+ CML cells; format: cell-based, Human
Method: CD34^+ cells isolated from IMT-resistant patients (n=3) were treated with CFZ (5 μM, 24 h) and stat5b, HIF-1α, HIF-2α and CITED2 transcripts were assessed by QRT-PCR (in triplicates). ***p<0.0001.
CD34+ cells were isolated from imatinib-resistant CP-CML cells as described above. Cells were then treated with vehicle (V; 0.1% DMSO) or CFZ (5 μM) for 24 h. Total RNA was isolated from CD34+ cells as described above, using TRI reagent. 2 μg total RNA was reverse transcribed using High-Capacity cDNA Reverse Transcription Kit (Applied Biosystems; Foster City, Calif.). Quantitative real-time PCRs (QRT-PCR) were performed on a LightCycler 480 System (Roche, Indianapolis, Ind.) using VeriQuest SYBR Green qPCR Master Mix (Affymetrix, Thermo Scientific). The QRT-PCR primers were designed using Universal ProbeLibrary Assay Design Center (Roche Life Science). Primer sequences (5′-3′) hSTAT5B-For-TGAAG […], hSTAT5B-Rev […] ACTG, hHIF-1α-For-[…], hHIF-1α-Rev-[…], hHIF-2α-For-[…], hHIF-2α-Rev-[…], hCITED-2-For-[…], hCITED-2-Rev-[…]. The data were analyzed by ΔΔCT method with GAPDH (GAPDH-For-[…], GAPDH-Rev-GCC […]) used as an internal control (FIG. 2F).

[5] = CD34+ cells from imatinib-resistant patients, CFZ 5 μM, 24 h

SMILES: CC(C)/N=c1\cc2n(-c3ccc(Cl)cc3)c3ccccc3nc-2cc1Nc1ccc(Cl)cc1 [CFZ, Clofazimine]
- efficacy of apoptosis induction ([1]; CP-CML cells from freshly diagnosed patients): comparable to imatinib
- efficacy of apoptosis induction ([1]; CP-CML cells from imatinib responders): comparable to imatinib
- efficacy of apoptosis induction versus dasatinib ([1]; CP-CML cells harboring BCR-ABL mutation F359V): higher
- efficacy of apoptosis induction versus dasatinib ([1]; CP-CML cells harboring BCR-ABL mutation M244V): comparable
- efficacy of apoptosis induction versus dasatinib ([1]; CP-CML cells harboring BCR-ABL mutation M351T): higher
- efficacy of apoptosis induction versus dasatinib ([1]; CP-CML cells harboring BCR-ABL mutation Y253H): higher
- efficacy of apoptosis induction ([1]; imatinib-resistant CP-CML cells): higher than imatinib and dasatinib
- apoptosis in CD34+ cells from healthy donor by Annexin V [2]: no apoptosis
- viability of CD34+ hematopoietic progenitor cells from healthy controls [2]: No loss of survival
- apoptosis by Annexin V staining [3]: concentration-dependently induces apoptosis
- CITED2 transcript [4, 5]: reduced
- HIF-1α transcript [4, 5]: reduced
- HIF-2α transcript [4, 5]: reduced
- stat5b transcript [4, 5]: reduced
- stat5 mRNA expression ([4]; FIG. 2F): suppressed
